These results are taken from patent US8816088B2 (Theravance, Inc., priority 2009, dated 2014).

The assay has as its system MCh-induced bronchoconstriction. Briefly: Einthoven assay: bronchoprotection against methacholine (MCh)-induced bronchoconstriction. Format: in vivo. The following applies: Rattus norvegicus, inhaled or nasal, 24 h, read-out: Broncho. at 24 h, Bronchoprotective effect present at 24 h, 100 μg by inhalation, 24 h after administration. As to the method:
This assay measures the ability of a test compound to provide bronchoprotection against methacholine (MCh)-induced bronchoconstriction in a rat. Male Sprague-Dawley rats (Harlan, Indianapolis, Ind.), weighing between 200 g and 350 g, were used for all studies. Test compound or vehicle (sterile deionized water) were dosed by inhalation (1H) over a 10 min period in a pie shaped inhalation chamber (R+S Molds, San Carlos, Calif.) using 5 mL of dosing solution. […] Rats were dosed with 100 μg of test compound unless otherwise indicated. At predetermined time points, rats were anesthetized with an intraperitoneal (IP) injection of 120 mg/kg inactin (thiobutabarbital). A supplemental dose (40 mg/kg, IP) was administered if the animal responded to physical stimuli (e.g. toe pinch). The surgical site was shaved and a 1-2 cm midline incision of the ventral aspect of the neck was made. The jugular vein was isolated and cannulated with a saline-filled polyethylene catheter (PE-50) to allow IV infusion of MCh. Trachea was dissected free and cannulated with a 14G needle (#NE-014, Small Parts, Miami Lakes, Fla.). After placement of the tracheal cannula, each rat was ventilated using a respirator (Model 683, Harvard Apparatus, Inc., MA) set at a stroke volume of 1 mL/100 g body weight (but not exceeding 2.5 mL volume) and a rate of 90 strokes per minute. A T-connector was placed along the respirator expiratory tubing to allow for measurement of changes in ventilation pressure (VP) using a Biopac transducer that was connected to a Biopac […]) pre-amplifier. Body temperature was maintained at 37° C. using a heating pad. Changes in VP were recorded using the Acknowledge Data Collection Software (Santa Barbara, Calif.). Baseline values were collected for at least 2.5 min. Rats were then challenged with non-cumulative intravenous (IV) infusions of 40 and 80 μg/kg MCh. MCh was infused intravenously for 2.5 minutes from a syringe pump (sp210iw, World Precision Instruments, Inc., Sarasota, Fla.) at a rate of 2 mL/kg/min, with a 2 minute interval between the two doses of MCh. Changes in ventilation pressure (cm H2O) in treated animals are expressed as % inhibition of MCh response relative to control animals. Other bronchoconstrictors, such as histamine and acetylcholine, can be used in place of MCh in this assay. Additionally, guinea pigs can be used instead of rats. […] Inhibition greater than or equal to 30 percent at 24 h is indicative of a long duration of action.

Counter-ions that a name gives are not always drawn.

`CN(C(=O)CCN1CCC(OC(=O)Nc2ccccc2-c2ccccc2)CC1)c1cccc(C(=O)Nc2cccc(CCNC[C@H](O)c3ccc(O)c4[nH]c(=O)ccc34)c2)c1` [Compound I-32, ditrifluoroacetic acid salt]: the inhibition in vivo at 0.1 mg was below 30%.
With `C[C@@H](Cc1cccc(NC(=O)c2cccc(N(C)C(=O)CCN3CCC(OC(=O)Nc4ccccc4-c4ccccc4)CC3)c2)c1)NC[C@H](O)c1ccc(O)c2[nH]c(=O)ccc12` [Compound I-39, ditrifluoroacetic acid salt] the figure was below 30%; with `C[C@H](Cc1cccc(CC(=O)NCCCN(C)C(=O)CCN2CCC(OC(=O)Nc3ccccc3-c3ccccc3)CC2)c1)NC[C@H](O)c1ccc(O)c2[nH]c(=O)ccc12` [Compound I-12, Biphenyl-2-ylcarbamic acid 1-[2-({3-[2-(3-{(R)-2-[(R)-2-hydroxy-2-(8-hydroxy-2-oxo-1,2-dihydroquinolin-5-yl)ethylamino]propyl}phenyl)acetylamino]propyl}-methylcarbamoyl)ethyl]piperidin-4-yl ester ditrifluoroacetic acid salt], below 30%.
In the case of `CC(Cc1ccc(CNC(=O)Cc2ccc(N(C)C(=O)CCN3CCC(OC(=O)Nc4ccccc4-c4ccccc4)CC3)cc2)cc1)NC[C@H](O)c1ccc(O)c2[nH]c(=O)ccc12` (stereo partly drawn) [Compound I-66, Biphenyl-2-ylcarbamic acid 1-[2-({4-[(4-{2-[(R)-2-hydroxy-2-(8-hydroxy-2-oxo-1,2-dihydroquinolin-5-yl)-ethylamino]propyl}benzylcarbamoyl)methyl]phenyl}-methylcarbamoyl)ethyl]piperidin-4-yl ester ditrifluoroacetic acid salt], the inhibition in vivo at 0.1 mg is below 30%.
With `CN(C(=O)CCN1CCC(OC(=O)Nc2ccccc2-c2ccccc2)CC1)c1ccc(CC(=O)NCc2ccc(CCNC[C@H](O)c3ccc(O)c4[nH]c(=O)ccc34)cc2)cc1` [Compound I-64, Biphenyl-2-ylcarbamic acid 1-[2-({4-[(4-{2-[(R)-2-hydroxy-2-(8-hydroxy-2-oxo-1,2-dihydroquinolin-5-yl)-ethylamino]ethyl}benzylcarbamoyl)methyl]phenyl}-methylcarbamoyl)ethyl]piperidin-4-yl ester ditrifluoroacetic acid salt] the figure was below 30%.
